Results reported in US6368788B1 (priority 1987, dated 2002).
Marks after values point to notes of the source that are not given here.

Legend:
[1] = test system: M. bovis; type: in vivo, mice; details: Group 8; INH 5 mg/kg sc daily
[2] = test system: YAC-1 target cells; experiment: NK cytotoxic activity of splenocytes on YAC-1 target cells; type: in vivo, C3H/HeJ mice; details: for Cytotoxicity Change (%): vs saline
[3] = test system: Rauscher MuLV; experiment: Anti-viral response to Rauscher MuLV; type: in vivo, mice; details: days −2, −1, 0, +1, and +2; for Viremia: ± SEM
Description: Innate mechanisms of anti-viral immunity are important to survival of the host. The Rauscher murine leukemia virus (MuLV) is an example of a highly virulent animal retrovirus infection, first isolated and characterized by Dr. Rauscher from BALB/c mouse tissues in 1962. […] The virus employed in present GLP/blinded study was a murine leukemia complex known to induce progressive erythroleukemia in mice (i.e., Rauscher MuLV and replication-defective Rauscher spleen focus-forming virus). Disease manifested within about 6 days with death by about 50 days. Measurements of splenomegaly, blood reverse transcriptase, virus plaque assays (i.e., XC-plaque assay for viremia using SC-1 host cells) and serum anti-viral antibody titers were used to assess infection. Spleens achieved about 2.0 grams in weight within 21 days of infection, as compared with a normal spleen weights in an uninfected animals of about 0.1 gram.
Mice were inoculated with Rauscher MuLV complex (0.1 ml/7.8×10^4 PFU/mL) on day 0 and sacrificed on day 21. Test groups were comprised of 10 mice and control groups 6 mice. Control articles included saline and AZT (in drinking water at about 1.25 mg/mouse/day≈63 mg/kg/day/mouse). […] A non-infected group of mice was also sacrificed on day 21 to provide normal control values.
In EXAMPLE 38, SC-1 cells were originally derived from murine embryos, and XC cells (a rat tumor cell line induced by Rous Sarcoma Virus) were obtained from the ATCC in Rockville, Md.

[4] = Survival in LPS-induced endotoxic shock; type: in vivo, CBA mice
Description: The mortality results were evaluated using the Litchfield-Wilcoxon's probit analysis method and a computer program written to conduct probit analyses.

NNC(=O)c1ccncc1 [Isoniazid, reference compound]
Survival Mean [1]: 57 ± 2

Glu-Trp
% Cytotoxicity (mean +/− S.D.) ([2]; dose 1 (μg/kg ip daily 7 days)): 10.7 ± 14%
Cytotoxicity Change (%) ([2]; dose 1): 25 ↑ %
% Cytotoxicity (mean +/− S.D.) ([2]; dose 10 (μg/kg ip daily 7 days)): 14.3 ± 1.7%
Cytotoxicity Change (%) ([2]; dose 10): 67 ↑ %
% Cytotoxicity (mean +/− S.D.) ([2]; dose 1000 (μg/kg ip daily 7 days)): 14.9 ± 2.9%
Cytotoxicity Change (%) ([2]; dose 1000): 75* ↑ %
Reduction Splenomegaly (%) ([3]; 0.002 mg/kg): −9%
Spleen Weight (mean ± SD) ([3]; 0.002 mg/kg): 0.49 ± 0.31
Reduction Splenomegaly (%) ([3]; 0.005 mg/kg): −3%
Spleen Weight (mean ± SD) ([3]; 0.005 mg/kg): 0.47 ± 0.29
Viremia ([3]; 0.005 mg/kg): 3.25 ± 0.27 log10PFU/ml
Reduction Splenomegaly (%) ([3]; 0.02 mg/kg): 12%
Spleen Weight (mean ± SD) ([3]; 0.02 mg/kg): 0.42 ± 0.32
Reduction Splenomegaly (%) ([3]; 0.05 mg/kg): 30%
Spleen Weight (mean ± SD) ([3]; 0.05 mg/kg): 0.36 ± 0.11
Viremia ([3]; 0.05 mg/kg): 2.99 ± 0.28 log10PFU/ml
Reduction Splenomegaly (%) ([3]; 0.17 mg/kg): 12%
Spleen Weight (mean ± SD) ([3]; 0.17 mg/kg): 0.42 ± 0.26
Reduction Splenomegaly (%) ([3]; 0.5 mg/kg): −12%
Spleen Weight (mean ± SD) ([3]; 0.5 mg/kg): 0.48 ± 0.3
Viremia ([3]; 0.5 mg/kg): 3.31 ± 0.39 log10PFU/ml
Reduction Splenomegaly (%) ([3]; 1.75 mg/kg): 3%
Spleen Weight (mean ± SD) ([3]; 1.75 mg/kg): 0.45 ± 0.39
Reduction Splenomegaly (%) ([3]; 5 mg/kg): 6%
Spleen Weight (mean ± SD) ([3]; 5 mg/kg): 0.44 ± 0.15
Viremia ([3]; 5 mg/kg): 3.43 ± 0.368 log10PFU/ml
Survivors (%) ([4]; 24 hrs after LD99 LPS ip, 10 μg/kg ip daily x3 prophylactic): 36%
Survivors ([4]; 24 hrs after LD99 LPS ip, 10 μg/kg ip daily x3 prophylactic, 11 animals): 4
Survivors (%) ([4]; 24 hrs after LD99 LPS ip, 100 μg/kg ip daily x3 prophylactic): 80* %
Survivors ([4]; 24 hrs after LD99 LPS ip, 100 μg/kg ip daily x3 prophylactic, 10 animals): 8
Survivors (%) ([4]; 30 hrs after LD99 LPS ip, 10 μg/kg ip daily x3 prophylactic): 9%
Survivors ([4]; 30 hrs after LD99 LPS ip, 10 μg/kg ip daily x3 prophylactic, 11 animals): 1
Survivors (%) ([4]; 30 hrs after LD99 LPS ip, 100 μg/kg ip daily x3 prophylactic): 40* %
Survivors ([4]; 30 hrs after LD99 LPS ip, 100 μg/kg ip daily x3 prophylactic, 10 animals): 4
